This note sets out measurements from publication PMC4403932 (Journal of Medicinal Chemistry, 2015).

Common to all, as to format: binding
Assay [1] addresses T1, BRD4(1) (Homo sapiens, UniProt O60885).
T1 construct: made in house
The assay is described as follows: Isothermal titration calorimetry, BRD4(1). How it is done:
(§1) Experiments were carried out on an ITC200 titration microcalorimeter from MicroCal, LLC (GE Healthcare) equipped with a Washing module, with a cell volume of 0.2003 mL, and a 40 μL microsyringe. Experiments were carried out at 15 °C while stirring at 1000 rpm, in ITC buffer (50 mM HEPES, pH 7.5 (at 25 °C), 150 mM NaCl). The microsyringe was loaded with a solution of the protein sample (300−740 μM protein for BRD9 and BRD4(1), respectively, in ITC buffer) and was carefully inserted into the calorimetric cell which was filled with an amount of the ligand (0.2 mL, 20–25 μM in ITC buffer). The system was first allowed to equilibrate until the cell temperature reached 15 °C, and an additional delay of 60 s was applied. All titrations were conducted using an initial control injection of 0.3 μL followed by 38 identical injections of 1 μL with a duration of 2 s (per injection) and a spacing of 120 s between injections. The titration experiments were designed in such a fashion as to ensure complete saturation of the proteins before the final injection. The heat of dilution for the proteins was independent of their concentration and corresponded to the heat observed from the last injection, following saturation of ligand binding, thus facilitating the estimation of the baseline of each titration from the last injection. The collected data were corrected for protein heats of dilution (measured on separate experiments by titrating the proteins into ITC buffer) and deconvoluted using the MicroCal Origin software supplied with the instrument to yield enthalpies of binding (ΔH) and binding constants (KB) in the same fashion as that previously described in detail by Wiseman and co-workers.[66] Thermodynamic parameters were calculated using the basic equation of thermodynamics (ΔG = ΔH – TΔS = −RT ln KB, where ΔG, ΔH, and ΔS are the changes in free energy, enthalpy, and entropy of binding, respectively). In all cases a single binding site model was employed, supplied with the MicroCal Origin software package.
(ITC needs no label: the signal is the heat of the interaction.)

Assay [2] concerns the target T2, BRD9 (Homo sapiens, UniProt Q9H8M2).
T2 construct: made in house
T2 sequence (Q9H8M2 136-240 limits assumed): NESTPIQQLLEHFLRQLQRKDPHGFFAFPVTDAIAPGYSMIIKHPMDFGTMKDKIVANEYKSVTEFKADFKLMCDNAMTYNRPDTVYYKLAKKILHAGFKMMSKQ
The assay is described as follows: Isothermal titration calorimetry, BRD9. How it is done:
as §1

The target of assay [3] is T2, BRD9. The assay is described as follows: Protein stability (thermal) shift assay, BRD9. How it is done:
(§2) Thermal melting experiments were carried out using an Mx3005p real time PCR machine (Stratagene). Proteins were buffered in 10 mM HEPES, pH 7.5, 500 mM NaCl and assayed in a 96-well plate at a final concentration of 2 μM in 20 μL volume. Compounds were added at a final concentration of 10 or 100 μM. SYPRO Orange (Molecular Probes) was added as a fluorescence probe at a dilution of 1 in 1000. Excitation and emission filters for the SYPRO-Orange dye were set to 465 and 590 nm, respectively. The temperature was raised with a step of 3 °C per minute from 25 to 96 °C, and fluorescence readings were taken at each interval. The temperature dependence of the fluorescence during the protein denaturation process was approximated by the equation [drawing 1] where ΔuG is the difference in unfolding free energy between the folded and unfolded state, R is the gas constant, and yF and yU are the fluorescence intensity of the probe in the presence of completely folded and unfolded protein, respectively.[65] The baselines of the denatured and native states were approximated by a linear fit. The observed temperature shifts, ΔTm^obs, were recorded as the difference between the transition midpoints of sample and reference wells containing protein without ligand in the same plate and determined by nonlinear least-squares fit. Temperature shifts (ΔTm^obs) for three independent measurements per proteins/compound are summarized in Supporting Information Table S1.

In assay [4] the target is T1, BRD4(1). As to the kind of experiment: Protein stability (thermal) shift assay, BRD4(1). As to conditions: for ΔTm at 10 µM: compound 10 μM, protein 2 μM, average of triplicate, read-out: ΔTm Shift, BRD4(1). How it is done: as §2
Another assay concerns the target T3, BRD2(1) (Homo sapiens, UniProt P25440).
T3 construct: Fragments were tested in a thermal shift assay against bromodomains of the BET subfamily; made in house
The assay is described as follows: Protein stability (thermal) shift assay, BRD2(1). As to conditions: for ΔTm at 10 µM: compound 10 μM, protein 2 μM, average of triplicate. How it is done:
as §2

In a further assay the target is T4, PCAF (Homo sapiens, UniProt Q92831).
T4 construct: representative BRDs from other structural subfamilies (family I, PCAF); made in house
T4 sequence (Q92831 723-827 limits assumed): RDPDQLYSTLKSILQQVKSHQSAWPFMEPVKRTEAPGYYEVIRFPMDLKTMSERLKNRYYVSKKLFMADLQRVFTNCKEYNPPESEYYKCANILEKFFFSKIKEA
As to the kind of experiment: Protein stability (thermal) shift assay, PCAF. As to conditions: for ΔTm at 10 µM: compound 10 μM, protein 2 μM, average of triplicate. The procedure: as §2

A further assay addresses T5, CREBBP (Homo sapiens, UniProt Q92793).
T5 construct: small thermal shits (1.0–1.3 °C) for the bromodomain of CREBBP; made in house
As to the kind of experiment: Protein stability (thermal) shift assay, CREBBP. As to conditions: compound 10 μM, protein 2 μM; average of triplicate; read-out: ΔTm Shift, CREBBP. The procedure: as §2

A further assay addresses T6, BRDT(2) (Homo sapiens, UniProt Q58F21).
T6 construct: made in house
The assay is described as follows: Protein stability (thermal) shift assay, BRDT(2). To be noted: compound 10 μM, protein 2 μM; average of triplicate; read-out: ΔTm Shift, BRDT(2). The procedure: as §2

In a further assay the target is T7, PB1(5) (Homo sapiens, UniProt Q86U86).
T7 construct: made in house
T7 sequence (Q86U86 653-763 limits assumed): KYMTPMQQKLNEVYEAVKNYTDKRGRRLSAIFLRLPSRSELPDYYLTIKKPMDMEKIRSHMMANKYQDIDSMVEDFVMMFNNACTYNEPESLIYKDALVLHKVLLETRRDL
As to the kind of experiment: Protein stability (thermal) shift assay, PB1(5). As to conditions: compound 10 μM, protein 2 μM; average of triplicate. How it is done:
as §2

Another assay has as its target T8, BRD2(2) (Homo sapiens, UniProt P25440).
T8 construct: made in house
As to the kind of experiment: Protein stability (thermal) shift assay, BRD2(2). As to conditions: compound 10 μM, protein 2 μM; average of triplicate. How it is done: as §2

The target in the next assay is T9, BRD3(1) (Homo sapiens, UniProt Q15059).
T9 construct: Fragments were tested in a thermal shift assay against bromodomains of the BET subfamily; made in house
T9 sequence (Q15059 34-140 limits assumed): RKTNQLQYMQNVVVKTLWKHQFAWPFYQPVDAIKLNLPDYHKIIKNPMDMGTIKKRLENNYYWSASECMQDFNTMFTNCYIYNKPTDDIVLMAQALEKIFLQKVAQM
As to the kind of experiment: Protein stability (thermal) shift assay, BRD3(1). As to conditions: compound 10 μM, protein 2 μM; average of triplicate. The procedure: as §2

The target of another assay is T10, BRD3(2) (Homo sapiens, UniProt Q15059).
T10 construct: made in house
T10 sequence (Q15059 306-415 limits assumed): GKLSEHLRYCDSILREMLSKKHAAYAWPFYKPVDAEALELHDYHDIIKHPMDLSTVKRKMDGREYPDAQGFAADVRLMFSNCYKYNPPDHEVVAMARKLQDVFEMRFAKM
As to the kind of experiment: Protein stability (thermal) shift assay, BRD3(2). To be noted: compound 10 μM, protein 2 μM; average of triplicate. How it is done:
as §2

The next assay deals with T11, BRD4(2) (Homo sapiens, UniProt O60885).
T11 construct: made in house
As to the kind of experiment: Protein stability (thermal) shift assay, BRD4(2). To be noted: compound 10 μM, protein 2 μM; average of triplicate. How it is done:
as §2

Another assay has as its target T12, BRDT(1) (Homo sapiens, UniProt Q58F21).
T12 construct: made in house
As to the kind of experiment: Protein stability (thermal) shift assay, BRDT(1). As to conditions: compound 10 μM, protein 2 μM; average of triplicate. The procedure:
as §2

A further assay concerns the target T13, BAZ2B (Homo sapiens, UniProt Q9UIF8).
T13 construct: representative BRDs from other structural subfamilies (family I, PCAF); family III, CREBBP; family IV, BRD9; family V, BAZ2B; made in house
T13 sequence (Q9UIF8 2060-2164 limits assumed): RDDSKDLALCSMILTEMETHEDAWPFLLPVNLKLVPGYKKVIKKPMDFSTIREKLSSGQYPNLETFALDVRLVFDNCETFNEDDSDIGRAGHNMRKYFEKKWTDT
As to the kind of experiment: Protein stability (thermal) shift assay, BAZ2B. To be noted: compound 10 μM, protein 2 μM; average of triplicate; read-out: ΔTm Shift, BAZ2BA. How it is done:
as §2

Where [5] appears, read: ITC, 50 mM HEPES pH 7.5, 150 mM NaCl, 15 °C, reverse titration, triplicate.
The mark [6] stands for this setting: compound 10 μM, protein 2 μM, average of triplicate, read-out: ΔTm Shift, BRD9.
[7] abbreviates: ITC, 50 mM HEPES pH 7.5, 150 mM NaCl, 15 °C, reverse titration, triplicate, read-out: KD.
Where [8] appears, read: ITC, read-out: dissociation constant.
The mark [9] stands for this setting: LE = ΔG/N, N number of non-hydrogen atoms.

Read-outs that look alike come from different tables or passages of the source.

T3 sequence (P25440 74-180 limits assumed): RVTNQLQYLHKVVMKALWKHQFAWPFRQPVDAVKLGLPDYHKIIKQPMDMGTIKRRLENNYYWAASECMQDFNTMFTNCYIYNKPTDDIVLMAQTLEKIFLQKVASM
T8 sequence (P25440 344-453 limits assumed): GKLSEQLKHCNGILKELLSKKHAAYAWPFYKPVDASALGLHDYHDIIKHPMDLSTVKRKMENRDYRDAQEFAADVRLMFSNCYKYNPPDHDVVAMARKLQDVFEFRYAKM
T5 sequence (Q92793 1085-1192 limits assumed): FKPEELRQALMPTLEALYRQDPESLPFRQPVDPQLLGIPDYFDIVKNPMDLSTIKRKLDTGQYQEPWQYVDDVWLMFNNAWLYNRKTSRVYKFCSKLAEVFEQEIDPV

Consider `Nc1nc(Br)c2nc[nH]c2n1` [Compound 2a, 2-amino-6-bromo-9H-purine], for which the KD entry at BRD4(1) [1] (setting [5]) and at BRD9 [2] (setting [5]) was “no binding/weak” throughout. Further, the ΔTm at 10 µM came out at 0.01 °C at BRD9 [3] (setting [6]) and 1.6 °C on BRD9 [3] (thermal shift, 10 μM compound, 2 μM protein, read-out: ΔTm).

With `Cn1cnc2c(Br)nc(N)nc21` [Compound 2b, 2-Amino-6-bromo-9-methylpurine], the KD entry at BRD9 [2] (setting [5]) is “no binding/weak”. In addition, the ΔTm at 10 µM was -0.0162 °C on BRD9 [3] (setting [6]); 1.4 °C at BRD4(1) [4]; -0.239 °C on BRD2(1); -1.6 °C on PCAF; 3.1 °C on CREBBP; -0.4 °C on BRDT(2). The ΔTm at 10 µM on PB1(5) is 1.9 °C; on BRD2(2), -1.8 °C; at BRD3(1), 0.654 °C; at BRD3(2), -0.6 °C; at BRD4(2) it was -2.4 °C; on BRDT(1), -0.8 °C. Besides, the ΔTm at 10 µM at BAZ2B was -0.8 °C.

Take `Nc1nc(-c2ccccc2)c2nc[nH]c2n1` [Compound 3a, 2-Amino-6-phenyl-9H-purine]: the Kd on BRD4(1) [1] (setting [7]) was 12 ± 0.743 µM; at BRD4(1) [1] (setting [8]) it was 12 µM; on BRD9 [2] (setting [7]), 8.47 ± 0.237 µM; on BRD9 [2] (setting [8]), 8.5 µM. For the same compound, the ΔG result on BRD4(1) [1] (ITC, 15 °C) is on record as “–6.48 kcal/mol”; on BRD9 [2] (ITC, 15 °C), “–6.69 kcal/mol”. In addition, the “N (stoichiometry)” value at BRD4(1) [1] (ITC, 15 °C, reverse titration) is 1.03 ± 0.049; on BRD9 [2] (ITC, 15 °C, reverse titration), 0.99 ± 0.010. The “LE (ligand efficiency)” value on BRD4(1) [1] (setting [9]) was 0.41; on BRD9 [2] (setting [9]), 0.42. The ΔTm at 10 µM at BRD9 [3] (setting [6]) is -0.107 °C; at BRD4(1) [4], 1.4 °C; on BRD2(1) it was 1.7 °C; at PCAF, 1.3 °C; at CREBBP, 0.847 °C; at BRDT(2) it was 0.7 °C. Also, the ΔTm at 10 µM came to 0.9 °C at PB1(5); 0.9 °C at BRD2(2); 0.9 °C at BRD3(1); 0.6 °C at BRD3(2); 0.5 °C on BRD4(2); 0.739 °C on BRDT(1). The ΔTm at 10 µM on BAZ2B amounted to 0.537 °C. The “binding to BRD9 in the ΔTm assay (in words)” value on BRD9 [3] (thermal shift, 10 μM compound) was “lack of affinity”. In addition, the “stabilization of BRD4(1) in thermal melt assay (in words)” value at BRD4(1) [4] (thermal shift, 10 μM compound) is recorded as “stabilized”. Moreover, the “stabilization of BRD2(1) in thermal melt assay (in words)” value on BRD2(1) (thermal shift, 10 μM compound) is reported as “stabilized”. Besides, the “stabilization of PCAF in thermal melt assay (in words)” value on PCAF (thermal shift, 10 μM compound) is on record as “stabilized”.
